Measured values reported in patent EP4629837B1, “ANIMAL FEED COMPOSITION HAVING A COMBINATION OF FENUGREEK AND NEOHESPERIDIN DIHYDROCHALCONE (NHDC) TO IMPROVE PERFORMANCE OF ANIMALS OR STIMULATE THEIR SWEET TASTE RECEPTORS” (ADM International Sàrl, priority 2022, dated 2024).
Where a SMILES comes first, the peptide text is derived from it.

Legend:
[1] = target: T1, pig sweet taste receptors (Sus scrofa, UniProt I1ZBR6+Q0EF93); assay: Activation of heterologously expressed pig sweet taste receptors in HEK293T-PEAK rapid Gα15 cells (Fluo-4 AM Ca2+ fluorescence, dose-response); type: cell-based; conditions: single compounds and 1:4 combination, heterologous system of Example 1
T1 sequence (I1ZBR6 entry or part of it): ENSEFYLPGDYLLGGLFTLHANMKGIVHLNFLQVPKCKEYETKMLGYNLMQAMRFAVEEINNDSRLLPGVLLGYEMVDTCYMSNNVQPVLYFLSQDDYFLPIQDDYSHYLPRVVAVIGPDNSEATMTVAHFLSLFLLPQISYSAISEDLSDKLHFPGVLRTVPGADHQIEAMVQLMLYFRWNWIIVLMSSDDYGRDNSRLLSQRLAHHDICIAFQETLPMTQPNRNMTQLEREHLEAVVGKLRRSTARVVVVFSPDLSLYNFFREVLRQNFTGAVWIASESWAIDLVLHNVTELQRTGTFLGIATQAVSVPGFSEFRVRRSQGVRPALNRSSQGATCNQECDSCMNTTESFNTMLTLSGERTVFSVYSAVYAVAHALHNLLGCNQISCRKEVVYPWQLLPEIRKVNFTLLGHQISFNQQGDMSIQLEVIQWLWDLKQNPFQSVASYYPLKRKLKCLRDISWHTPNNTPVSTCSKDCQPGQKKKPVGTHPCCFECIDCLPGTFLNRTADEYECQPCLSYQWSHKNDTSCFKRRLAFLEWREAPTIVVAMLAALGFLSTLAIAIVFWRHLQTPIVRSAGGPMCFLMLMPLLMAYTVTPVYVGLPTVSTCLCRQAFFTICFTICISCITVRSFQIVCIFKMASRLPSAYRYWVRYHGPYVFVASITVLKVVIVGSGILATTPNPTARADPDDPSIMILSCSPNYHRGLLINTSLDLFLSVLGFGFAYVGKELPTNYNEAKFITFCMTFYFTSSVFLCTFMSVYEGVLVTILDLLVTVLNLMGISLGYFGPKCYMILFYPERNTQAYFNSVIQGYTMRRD
T1 sequence (Q0EF93 entry or part of it): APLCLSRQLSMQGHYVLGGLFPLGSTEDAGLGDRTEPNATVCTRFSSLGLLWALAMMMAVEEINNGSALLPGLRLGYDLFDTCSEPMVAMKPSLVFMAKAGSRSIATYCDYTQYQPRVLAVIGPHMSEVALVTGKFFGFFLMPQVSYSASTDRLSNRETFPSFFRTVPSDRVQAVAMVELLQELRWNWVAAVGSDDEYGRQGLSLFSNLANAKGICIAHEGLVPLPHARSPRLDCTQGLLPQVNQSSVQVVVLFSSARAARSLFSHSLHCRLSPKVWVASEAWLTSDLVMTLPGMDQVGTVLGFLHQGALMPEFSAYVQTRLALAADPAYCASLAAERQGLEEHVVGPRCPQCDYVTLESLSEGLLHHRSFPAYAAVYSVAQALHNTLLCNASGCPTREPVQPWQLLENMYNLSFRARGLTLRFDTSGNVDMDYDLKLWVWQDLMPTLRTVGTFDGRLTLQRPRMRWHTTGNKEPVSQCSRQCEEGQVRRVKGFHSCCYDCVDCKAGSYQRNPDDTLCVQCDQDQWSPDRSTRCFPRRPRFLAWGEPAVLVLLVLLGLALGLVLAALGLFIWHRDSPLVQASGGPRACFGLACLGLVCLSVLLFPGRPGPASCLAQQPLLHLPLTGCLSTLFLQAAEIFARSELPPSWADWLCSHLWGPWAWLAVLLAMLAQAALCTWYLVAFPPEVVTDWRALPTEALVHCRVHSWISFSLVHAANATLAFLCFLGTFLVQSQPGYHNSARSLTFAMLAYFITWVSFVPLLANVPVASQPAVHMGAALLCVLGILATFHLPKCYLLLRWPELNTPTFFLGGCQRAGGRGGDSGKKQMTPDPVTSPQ
Method: For the production of pig sweet taste receptor constructs, full length coding sequences of pig taste receptors T1R2 and T1R3 of pigs were synthesized and ligated into modified expression vectors pcDNA3/TO and pcDNA5/FRT/PM for evaluation. Amino-terminal sst-tags were added to facilitate cell membrane targeting, cytomegalovirus (CMV) promoters were added to control gene expression, and carboxylterminal FLAG or HSV tags were added to enable immunological detection of receptor subunits 1,2. […]
Functional expression of sweet taste receptors. The pig sweet taste receptor function was analyzed by transfecting the HEK293T-PEAK rapid Gα15 cells with taste receptor constructs described herein. […]
The transfected cells were analyzed with each of the sweeteners/compounds individually using a wide range of concentrations. The ligand binding and subsequent activation of the taste receptor causes an influx of Ca^2+ ions into the cell, which can be measured as an increase in fluorescent signaling using a microplate reader as shown in Figure 2.
The dose-response curves are calculated by using mean fluorescence values of multiple wells receiving the same concentration of sweetener/compound, and subtracting fluorescence changes of corresponding cells transfected with empty vector (ΔF). Signals are normalized to background fluorescence (ΔF/F). […]

[2] = system: pig intestine; conditions: Daly et al.; cited from earlier work
[3] = target: T1, pig sweet taste receptors; conditions: Daly et al.; cited from earlier work

Row | In vitro EC50 (mg/ml) for pig sweet taste receptors [1] | SMILES | glucose uptake in the pig intestine [2] | activation of pig sweet taste receptors in vitro [3]
1 | 0.62 mg/mL | COc1ccc(CCC(=O)c2c(O)cc(O[C@@H]3O[C@H](CO)[C@@H](O)[C@H](O)[C@H]3O[C@@H]3O[C@@H](C)[C@H](O)[C@@H](O)[C@H]3O)cc2O)cc1O [NHDC # 020D066, 1-(4-((2-O-[6-Deoxy-α-L-mannopyranosyl]-β-D-glucopyranosyl)oxy)-2,6-dihydroxyphenyl)-3-[3-hydroxy-4-methoxyphenyl]-1-poranone] |  | 
2 | 0.76 mg/mL | C=C1C[C@@]23CC[C@H]4[C@@](C)(CCC[C@@]4(C)C(=O)O[C@@H]4O[C@H](CO)[C@@H](O)[C@H](O)[C@H]4O)[C@@H]2CC[C@]1(O[C@@H]1O[C@H](CO)[C@@H](O)[C@H](O[C@@H]2O[C@H](CO)[C@@H](O)[C@H](O)[C@H]2O)[C@H]1O[C@@H]1O[C@H](CO)[C@@H](O)[C@H](O)[C@H]1O)C3 [Rebaudioside A] |  | 
3 |  | COC(=O)[C@H](Cc1ccccc1)NC(=O)[C@@H](N)CC(=O)O [aspartame] (H-Asp-Phe-OMe) | do not induce higher glucose uptake in the pig intestine | do not activate pig sweet taste receptors in vitro
